Source: patent US12365674B2, “Inhibitors of histone deacetylase useful for the treatment or prevention of HIV infection” (Merck Sharp & Dohme LLC, priority 2019, dated 2025)

What follows are compounds tested against T1, human HDAC1 (Homo sapiens, UniProt Q13547) (assay: Human HDAC enzyme inhibitor Fluor-de-Lys assay, HDAC1). Settings: 0.3 nM enzyme, 20 μM substrate BML-KI104, 3 h pre-incubation, 60 min reaction; read-out: HDAC1_IC50.
T1 construct: Full length human HDAC1-FLAG was stably expressed in HEK-293F cells; host or cells: HEK-293F cells
T1 sequence (Q13547 whole entry): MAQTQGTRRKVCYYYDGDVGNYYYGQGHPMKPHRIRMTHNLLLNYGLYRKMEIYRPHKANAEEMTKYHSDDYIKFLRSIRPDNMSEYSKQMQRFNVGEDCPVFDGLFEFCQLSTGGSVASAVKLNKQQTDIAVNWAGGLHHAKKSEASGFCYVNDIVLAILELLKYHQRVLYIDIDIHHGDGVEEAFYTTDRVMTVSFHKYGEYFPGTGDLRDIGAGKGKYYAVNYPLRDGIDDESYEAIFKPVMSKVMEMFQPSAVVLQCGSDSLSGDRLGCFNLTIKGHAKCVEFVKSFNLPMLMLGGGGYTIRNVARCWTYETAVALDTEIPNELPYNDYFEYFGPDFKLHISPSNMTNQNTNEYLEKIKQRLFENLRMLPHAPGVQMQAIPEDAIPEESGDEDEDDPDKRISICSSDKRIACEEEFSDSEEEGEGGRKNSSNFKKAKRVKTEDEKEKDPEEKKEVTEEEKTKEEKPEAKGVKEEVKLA
Type: biochemical
Text: Recombinant human HDAC8 (catalog number BML-SE145-0100) and HDAC10 (catalog number BML-SE559-0050) enzymes, HDAC substrates BML-KI104 and BML-KI178, and HDAC developer solutions BML-KI105 and BML-KI176 were purchased from Enzo Life Sciences (Farmingdale, NY). Recombinant human HDAC5 and HDAC11 were purchased from BPS Bioscience (San Diego, CA)(catalog numbers 50045 and 50021). Substrate Boc-Lys(TFA)-AMC was obtained from Bachem (Bupendorf, Switzerland) (catalog number 1-1985). HDAC inhibitor suberoylanilide hydroxamic acid (SAHA) was obtained from Indofine (Hillsborough Township, NJ) and trichostatin A (TSA) was obtained from Sigma-Aldrich (St. Louis, MO). […] HEPES pH 8.0 was obtained from Boston BioProducts (Ashland, MA), Tween-20 from Fisher Scientific (Hampton, NH)(catalog number BP337), TCEP from Calbiochem and 7.5% bovine serum albumin (BSA) from Life Technologies (Carlsbad, CA) (catalog number 15260037). 384-well, black assay plates were obtained from Corning (Corning, NY) (catalog number 3575).
Recombinant human HDAC1, HDAC2, and HDAC3/SMRT heterodimer were prepared by Merck Research Laboratories. […] The eluted protein was then passed over an anti-HDAC1 immunoaffinity column to remove any complexes containing HDAC1. […]
The histone deacetylase activities of HDAC1, HDAC2, HDAC3, HDAC6, and HDAC8 were measured in modified Fluor-de-Lys assays in 384-well format. In this assay, HDAC enzymes are initially incubated with an ε-acetyl (or -trifluoroacetyl)-L-lysine-containing substrate with a C-terminal amide having aminomethylcoumarin as the amine component. HDACs cleave the ε-acetyl group, rendering the resulting product susceptible to AMC cleavage by trypsin. The released AMC is then detected by its fluorescence.
The HDAC 1, 2 assays employed buffer A, which contained 20 mM HEPES, pH 8.0, 1 mM MgCl2, 137 mM NaCl, 2.7 mM KCl, 0.05% BSA. The HDAC3/SMRT assay employed buffer B, consisting of 20 mM HEPES, pH 8.0, 1 mM MgCl2, 50 mM NaCl, 2.7 mM KCl, 0.05% BSA, 0.005% Tween 20, and 10 μM IP4. The HDAC6 assay employed buffer C, consisting of 20 mM HEPES, pH 8.0, 1 mM MgCl2, 137 mM NaCl, 2.7 mM KCl, 0.5 mM TCEP (Calbiochem) and 0.05% BSA. The HDAC8 assay employed buffer D, consisting of 20 mM HEPES, pH 8.0, 1 mM MgCl2, 100 mM NaCl, 20 mM KCl, 0.1% n-octyl-β-D-glucoside (Anatrace, Maumee, OH) and 0.05% BSA. All steps were performed at room temperature (23° C.). The assay was performed by pre-incubating serial dilutions of test compounds with the target HDAC prior to initiation with substrate. Each compound was titrated in a 10-point dose response, using a 1:3 fold dilution scheme, with 0.15 ul of solution added by ECHO555 to the plate, followed by the addition of 20 μl of the appropriate HDAC isoform diluted in appropriate assay buffer. […] Final conditions used for each assay were: 1. HDAC 1, 0.3 nM total enzyme, 20 μM substrate BML-K1104; 2. HDAC 2, 1.5 nM total enzyme, 40 μM substrate BML-K1104; 3. HDAC 3/SMRT, 0.3 nM total enzyme, 20 μM substrate BML-K1104; 4. HDAC 6, 1.3 nM total enzyme, 2.5 μM substrate BML-K1104; 5. HDAC 8, 1.3 nM total enzyme, 200 μM substrate BML-K1178; the final high dose of test compound was 30 μM. […] The reactions were stopped and developed by addition of 30 ul of HDAC developer solution containing a saturating level of HDAC inhibitor as follows: 1.

In order of rising IC50:
1. CN1CCC2(CC1)C[C@@H]2C(=O)N[C@@H](COCCCC(=O)c1ccon1)c1[nH]c(-c2ccc(F)cc2)nc1Cl [Compound 18, (1S)-N-[(1R)-1-[4-chloro-2-(4-fluorophenyl)-1H-imidazol-5-yl]-2-(4-isoxazol-3-yl-4-oxobutoxy)ethyl]-6-methyl-6-azaspiro[2.5]octane-1-carboxamide]  1.4 nM
2. COc1nc2ccccc2cc1-c1cnc([C@H](COCCCC(=O)c2ccon2)NC(=O)CN(C)C)[nH]1 [Compound 14, N-{(1R)-2-(4-isoxazol-3-yl-4-oxobutoxy)-1-[5-(2-methoxyquinolin-3-yl)-1H-imidazol-2-yl]ethyl}-N~2~,N~2~- dimethylglycinamide]  1.5 nM
3. CNC(=O)C(=O)CCCOC[C@H](NC(=O)c1cncs1)c1ncc(-c2cc3ccccc3nc2OC)[nH]1 [Compound 8, N-[(1R)-1-[5-(2-methoxyquinolin-3-yl)-1H-imidazol-2-yl]-2-{[5-(methylamino)-4,5-dioxopentyl]oxy}ethyl]-1,3-thiazole-5-carboxamide]  1.5 nM
4. CNC(=O)C(=O)CCCOC[C@H](NC(=O)C12CCN(CC1)CC2)c1ncc(-c2cc3ccccc3nc2OC)[nH]1 [Compound 9, N-[(1R)-1-[5-(2-methoxyquinolin-3-yl)-1H-imidazol-2-yl]-2-{[5-(methylamino)-4,5-dioxopentyl]oxy}ethyl]-1-azabicyclo[2.2.2]octane-4-carboxamide]  1.5 nM
5. Cc1ccc2cc(-c3cnc([C@H](CSCCCC(=O)c4ncco4)NC(=O)[C@H]4CC45CCN(C)CC5)[nH]3)ccc2n1 [Compound 21, (1S)-6-methyl-N-[(1R)-1-[5-(2-methylquinolin-6-yl)-1H-imidazol-2-yl]-2-{[4-(1,3-oxazol-2-yl)-4-oxobutyl]sulfanyl}ethyl]-6-azaspiro[2.5]octane-1-carboxamide]  1.5 nM
6. COc1nc2ccccc2cc1-c1cnc([C@H](COCCCC(=O)c2ncco2)NC(=O)[C@H]2CC23CCN(C)CC3)[nH]1 [Compound 11, (1S)-N-{(1R)-1-[5-(2-methoxyquinolin-3-yl)-1H-imidazol-2-yl]-2-[4-(1,3-oxazol-2-yl)-4-oxobutoxy]ethyl}-6-methyl-6-azaspiro[2.5]octane-1-carboxamide]  2.1 nM
7. COc1nc2ccccc2cc1-c1cnc([C@H](COCCCC(=O)c2ncco2)NC(=O)CN(C)C)[nH]1 [Compound 13, N-{(1R)-1-[5-(2-methoxyquinolin-3-yl)-1H-imidazol-2-yl]-2-[4-(1,3-oxazol-2-yl)-4-oxobutoxy]ethyl}-N~2~,N~2~- dimethylglycinamide]  2.7 nM
8. COc1cc2nc(C)ccc2cc1-c1cnc([C@H](COCCCC(=O)c2cc(C)on2)NC(=O)[C@H]2CC23CCN(C)CC3)[nH]1 [Compound 20, (1S)-N-{(1R)-1-[5-(7-methoxy-2-methylquinolin-6-yl)-1H-imidazol-2-yl]-2-[4-(5-methylisoxazol-3-yl)-4-oxobutoxy]ethyl}-6-methyl-6-azaspiro[2.5]octane-1-carboxamide]  3.7 nM
9. CN1CC(C(=O)N[C@@H](COCCCC(=O)c2ccon2)c2ncc(-c3ccccc3F)[nH]2)C1 [Compound 15, N-[(1R)-1-[5-(2-fluorophenyl)-1H-imidazol-2-yl]-2-(4-isoxazol-3-yl-4-oxobutoxy)ethyl]-1-methylazetidine-3-carboxamide]  4 nM
10. COc1nc2ccccc2cc1-c1cnc([C@H](COCCCC(=O)c2ncco2)NC(=O)C23CCN(CC2)CC3)[nH]1 [Compound 12, N-{(1R)-1-[5-(2-methoxyquinolin-3-yl)-1H-imidazol-2-yl]-2-[4-(1,3-oxazol-2-yl)-4-oxobutoxy]ethyl}-1-azabicyclo[2.2.2]octane-4-carboxamide]  4.7 nM
11. COc1nc2ccccc2cc1-c1cnc([C@H](COCCCC(=O)c2ncco2)NC(=O)c2cncs2)[nH]1 [Compound 10, N-{(1R)-1-[5-(2-methoxyquinolin-3-yl)-1H-imidazol-2-yl]-2-[4-(1,3-oxazol-2-yl)-4-oxobutoxy]ethyl}-1,3-thiazole-5-carboxamide]  6.6 nM
12. COc1cc2nc(C)ccc2cc1-c1cnc([C@H](COCCCC(=O)c2cc(C)on2)NC(=O)C2CN(C)C2)[nH]1 [Compound 19, N-{(1R)-1-[5-(7-methoxy-2-methylquinolin-6-yl)-1H-imidazol-2-yl]-2-[4-(5-methylisoxazol-3-yl)-4-oxobutoxy]ethyl}-1-methylazetidine-3-carboxamide]  6.9 nM
13. CN1CC(C(=O)N[C@@H](COCCCC(=O)c2ccon2)c2[nH]c(-c3ccc(F)cc3)nc2Cl)C1 [Compound 16, N-[(1R)-1-[4-chloro-2-(4-fluorophenyl)-1H-imidazol-5-yl]-2-(4-isoxazol-3-yl-4-oxobutoxy)ethyl]-1-methylazetidine-3-carboxamide]  11.8 nM
14. CN(C)CC(=O)N[C@@H](COCCCC(=O)c1ccon1)c1[nH]c(-c2ccc(F)cc2)nc1Cl [Compound 17, N-[(1R)-1-[4-chloro-2-(4-fluorophenyl)-1H-imidazol-5-yl]-2-(4-isoxazol-3-yl-4-oxobutoxy)ethyl]-N~2~,N~2~- dimethylglycinamide]  18.6 nM
15. COc1nc2ccccc2cc1-c1cnc([C@@H](N)COCCCC(=O)c2ncco2)[nH]1 [Compound 1, (R)-4-(2-amino-2-(5-(2-methoxyquinolin-3-yl)-1H-imidazol-2-yl)ethoxy)-1-(oxazol-2-yl)butan-1-one]  288 nM
16. N[C@@H](COCCCC(=O)c1ccon1)c1ncc(-c2ccccc2F)[nH]1 [Compound 2, (R)-4-(2-amino-2-(5-(2-fluorophenyl)-1H-imidazol-2-yl)ethoxy)-1-(isoxazol-3-yl)butan-1-one]  602 nM
